Laboratory results from patent publication US9790213B2, “Imidazoles for the treatment and prophylaxis of respiratory syncytial virus infection” (Hoffmann-La Roche Inc., priority 2015, dated 2017).

System: RSV
Experiment: not given
Settings: two separate Phase III clinical trials, selected high-risk infants, prophylactic use; cited from earlier work

Compound	reduction in hospitalization rate
palivizumab: palivizumab (Synagis, MedImmune), approved for prophylactic use in selected high-risk infants	45-55%

System: RSV Long strain (ATCC VR-26)
Experiment: Viral cytopathic effect (CPE) assay
Type: cell-based
Settings: human respiratory syncytial virus, 120 h, cell viability after 5 days (Cell Counting kit-8)
Method: EC50: the concentration of a compound where 50% of its maximal protection effect against viral induced CPE is observed LongStrain: a subtype RSV strain obtained from ATCC with catalog number VR-26 To measure anti-RSV activity of compounds, 96-well plates were seeded with 6×10^3 cells per well in Dulbecco's modified Eagle's medium (DMEM) containing 10% fetal bovine serum (FBS). Cells were infected the next day with sufficient RSV Long strain (ATCC) to produce an approximately 80-90% cytopathic effect after 5 days, in the presence of serial half-log diluted compound in a total volume of 200 μL per well. The viability of cells is assessed after 5 days using Cell Counting kit-8 (Dojindo Molecular Technologies). The absorbance at 450 nm and referenced at 630 nm is measured to determine 50% effective concentration (EC50).

Compound	EC50 [µM]
COC(=O)c1ccc(-c2noc(-c3nc(C)n(-c4ccccc4Cl)c3C)n2)cc1OC [Example 1-13, 4-{5-[1-(2-Chloro-phenyl)-2,5-dimethyl-1H-imidazol-4-yl]-[1,2,4]oxadiazol-3-yl}-2-methoxy-benzoic acid methyl ester]	2.38
COc1ccc(-c2noc(-c3nc(C)n(-c4ccccc4Cl)c3C)n2)c(OC)c1 [Example 1-16, 5-[1-(2-Chloro-phenyl)-2,5-dimethyl-1H-imidazol-4-yl]-3-(2,4-dimethoxy-phenyl)-[1,2,4]oxadiazole]	1.47
COc1ccc(OC)c(-c2noc(-c3nc(C)n(-c4ccccc4Br)c3C)n2)c1 [Example 1-7, 5-[1-(2-Bromo-phenyl)-2,5-dimethyl-1H-imidazol-4-yl]-3-(2,5-dimethoxy-phenyl)-[1,2,4]oxadiazole]	0.68
COc1cc(-c2noc(-c3cn(-c4ccccc4Br)c(C)n3)n2)cc(OC)c1OC [Example 1-1, 5-(1-(2-Bromophenyl)-2-methyl-1H-imidazol-4-yl)-3-(3,4,5-trimethoxyphenyl)-1,2,4-oxadiazole]	0.78
COC(=O)c1ccc(-c2noc(-c3nc(C)n(-c4ccccc4Cl)c3C)n2)cc1 [Example 1-4, 4-{5-[1-(2-Chloro-phenyl)-2,5-dimethyl-1H-imidazol-4-yl]-[1,2,4]oxadiazol-3-yl}-benzoic acid methyl ester]	4.06
Cc1nc(-c2nc(-c3ccc(C(=O)O)cc3)no2)c(C)n1-c1ccccc1Cl [Example 2-2, 4-{5-[1-(2-Chloro-phenyl)-2,5-dimethyl-1H-imidazol-4-yl]-[1,2,4]oxadiazol-3-yl}-benzoic acid]	3.08
COc1cc(-c2noc(-c3nc(C)n(-c4ccccc4Cl)c3C)n2)cc(OC)c1OC [Example 1-18, 5-[1-(2-Chloro-phenyl)-2,5-dimethyl-1H-imidazol-4-yl]-3-(3,4,5-trimethoxy-phenyl)-[1,2,4]oxadiazole]	1.59
COc1cc(-c2noc(-c3ncn(-c4c(C)cccc4C)c3C)n2)cc(OC)c1OC [Example 1-6, 5-(1-(2,6-Dimethylphenyl)-5-methyl-1H-imidazol-4-yl)-3-(3,4,5-trimethoxyphenyl)-1,2,4-oxadiazole]	0.51
COc1ccc(-c2noc(-c3nc(C)n(-c4ccccc4Cl)c3C)n2)cc1 [Example 1-11, 5-[1-(2-Chloro-phenyl)-2,5-dimethyl-1H-imidazol-4-yl]-3-(4-methoxy-phenyl)-[1,2,4]oxadiazole]	5.07
COc1ccccc1-n1c(C)nc(-c2nc(-c3cc(OC)c(OC)c(OC)c3)no2)c1C [Example 1-23, 5-[1-(2-Methoxy-phenyl)-2,5-dimethyl-1H-imidazol-4-yl]-3-(3,4,5-trimethoxy-phenyl)-[1,2,4]oxadiazole]	2.08
COc1cc(-c2noc(-c3cnc(-c4ccccc4Cl)n3C)n2)cc(OC)c1OC [Example 1-26, 5-[2-(2-Chlorophenyl)-3-methyl-imidazol-4-yl]-3-(3,4,5-trimethoxyphenyl)-1,2,4-oxadiazole]	2.03
COc1ccc(-c2noc(-c3nc(C)n(-c4ccccc4Cl)c3C)n2)c(F)c1 [Example 1-20, 5-[1-(2-Chloro-phenyl)-2,5-dimethyl-1H-imidazol-4-yl]-3-(2-fluoro-4-methoxy-phenyl)-[1,2,4]oxadiazole]	2.99
COc1ccc(-c2noc(-c3ncn(-c4c(C)cccc4C)c3C)n2)cc1 [Example 1-10, 5-(1-(2,6-Dimethylphenyl)-5-methyl-1H-imidazol-4-yl)-3-(4-methoxyphenyl)-1,2,4-oxadiazol]	2.4
COc1cc(C(=O)O)ccc1-c1noc(-c2ncn(-c3c(C)cccc3Cl)c2C)n1 [Example 2-1, 4-[5-[1-(2-Chloro-6-methyl-phenyl)-5-methyl-imidazol-4-yl]-1,2,4-oxadiazol-3-yl]-3-methoxy-benzoic acid]	1.85
COC(=O)c1ccc(-c2noc(-c3nc(C)n(-c4ccccc4Cl)c3C)n2)cc1C [Example 1-21, 4-{5-[1-(2-Chloro-phenyl)-2,5-dimethyl-1H-imidazol-4-yl]-[1,2,4]oxadiazol-3-yl}-2-methyl-benzoic acid methyl ester]	5.31
COc1cc(-c2noc(-c3ncn(-c4c(C)cccc4Cl)c3C)n2)cc(OC)c1OC [Example 1-9, 5-[1-(2-Chloro-6-methyl-phenyl)-5-methyl-imidazol-4-yl]-3-(3,4,5-trimethoxyphenyl)-1,2,4-oxadiazole]	0.22

Compound	EC50 [µM]
COc1ccc(-c2noc(-c3ncn(-c4c(C)cccc4Cl)c3C)n2)c(OC)c1 [Example 1-8, 5-[1-(2-Chloro-6-methyl-phenyl)-5-dimethyl-1H-imidazol-4-yl]-3-(2,4-dimethoxy-phenyl)-[1,2,4]oxadiazole]	0.193
COc1ccc(OC)c(-c2noc(-c3nc(C)n(-c4ccccc4Cl)c3C)n2)c1 [Example 1-17, 5-(1-(2-chlorophenyl)-2,5-dimethyl-1H-imidazol-4-yl)-3-(2,5-dimethoxy-phenyl)-1,2,4-oxadiazole]	1.81
COc1cc(C(=O)O)ccc1-c1noc(-c2ncn(-c3c(C)cccc3C)c2C)n1 [Example 2-3, 4-{5-[1-(2,6-Dimethyl-phenyl)-5-methyl-1H-imidazol-4-yl]-[1,2,4]oxadiazol-3-yl}-3-methoxy-benzoic acid]	1.97
COc1ccccc1-c1noc(-c2nc(C)n(-c3ccccc3Cl)c2C)n1 [Example 1-14, 5-[1-(2-Chloro-phenyl)-2,5-dimethyl-1H-imidazol-4-yl]-3-(2-methoxy-phenyl)-[1,2,4]oxadiazole]	0.68
COc1cc(-c2noc(-c3ncn(-c4c(C)cccc4C)c3C)n2)ccc1C(=O)O [Example 2-4, 4-{5-[1-(2,6-Dimethyl-phenyl)-5-methyl-1H-imidazol-4-yl]-[1,2,4]oxadiazol-3-yl}-2-methoxy-benzoic acid]	0.76
COc1cc(-c2noc(-c3ncn(-c4c(C)cccc4Cl)c3C)n2)ccc1C(=O)O [Example 2-5, 4-{5-[1-(2-Chloro-6-methyl-phenyl)-5-methyl-1H-imidazol-4-yl]-[1,2,4]oxadiazol-3-yl}-2-methoxy-benzoic acid]	0.59
COc1cc(-c2noc(-c3ncc(-c4ccccc4Cl)n3C)n2)cc(OC)c1OC [Example 1-25, 5-[5-(2-Chlorophenyl)-1-methyl-imidazol-2-yl]-3-(3,4,5-trimethoxyphenyl)-1,2,4-oxadiazole]	1.28
COc1cc(-c2noc(-c3nc(CO)n(-c4ccccc4Cl)c3C)n2)cc(OC)c1OC [Example 3-1, (1-(2-Chlorophenyl)-5-methyl-4-(3-(3,4,5-trimethoxyphenyl)-1,2,4-oxadiazol-5-yl)-1H-imidazol-2-yl)methanol]	1.79
COc1cc(-c2noc(-c3nc(C)n(-c4ccccc4Br)c3C)n2)cc(OC)c1OC [Example 1-3, 5-(1-(2-Bromophenyl)-2,5-dimethyl-1H-imidazol-4-yl)-3-(3,4,5-trimethoxyphenyl)-1,2,4-oxadiazole]	0.5
COc1cccc(-c2noc(-c3nc(C)n(-c4ccccc4Cl)c3C)n2)c1 [Example 1-22, 5-[1-(2-Chloro-phenyl)-2,5-dimethyl-1H-imidazol-4-yl]-3-(3-methoxy-phenyl)-[1,2,4]oxadiazole]	5.96
COc1cc(-c2noc(-c3nc(C(=O)O)n(-c4ccccc4Cl)c3C)n2)cc(OC)c1OC [Example 3-2, 1-(2-Chlorophenyl)-5-methyl-4-(3-(3,4,5-trimethoxyphenyl)-1,2,4-oxadiazol-5-yl)-1H-imidazole-2-carboxylic acid]	4.05
COc1ccc(-c2noc(-c3ncn(-c4c(C)cccc4C)c3C)n2)c(OC)c1 [Example 1-12, 3-(2,4-Dimethoxy-phenyl)-5-[1-(2,6-dimethyl-phenyl)-5-methyl-1H-imidazol-4-yl]-[1,2,4]oxadiazole]	0.362
COc1cc(-c2noc(-c3ncn(-c4ccccc4Br)c3C)n2)cc(OC)c1OC [Example 1-2, 5-[1-(2-Bromo-phenyl)-5-methyl-1H-imidazol-4-yl]-3-(3,4,5-trimethoxy-phenyl)-[1,2,4]oxadiazole]	0.6
COc1ccc(-c2noc(-c3ncn(-c4c(C)cccc4Cl)c3C)n2)cc1 [Example 1-15, 5-[1-(2-Chloro-6-methyl-phenyl)-5-methyl-1H-imidazol-4-yl]-3-(4-methoxy-phenyl)-[1,2,4]oxadiazole]	1.74
COC(=O)c1ccc(-c2noc(-c3nc(C)n(-c4ccccc4Cl)c3C)n2)c(OC)c1 [Example 1-19, 4-{5-[1-(2-Chloro-phenyl)-2,5-dimethyl-1H-imidazol-4-yl]-[1,2,4]oxadiazol-3-yl}-3-methoxy-benzoic acid methyl ester]	0.92
COc1cc(-c2noc(-c3nc(Br)n(-c4ccccc4Cl)c3C)n2)cc(OC)c1OC [Example 1-24, 5-[2-Bromo-1-(2-chloro-phenyl)-5-methyl-1H-imidazol-4-yl]-3-(3,4,5-trimethoxy-phenyl)-[1,2,4]oxadiazole]	0.78
